Assay results: US20190151312A1, “HEPARAN SULFATE BIOSYNTHESIS INHIBITORS FOR THE TREATMENT OF DISEASES” (BioMarin Pharmaceutical Inc., priority 2014, published 2019)

What follows are molecules tested on GM01896 cells (MPS II dermal fibroblasts) (assay: Assay 1: MPS cellular assay, MPS II (heparan sulfate disaccharide biomarkers by LC-MS)). Conditions: Assay 1 for MPS II, heparan sulfate disaccharide biomarkers (I2a4, I2a6, I2S0 and/or I2S6), read-out: IC50 Range.
Type: cell-based, human
Summary of the method: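 Heparan sulfate disaccharide biomarkers quantified by LC-MS after heparinase I/II/III digestion and isotopic aniline labelling, using GM01896 MPS II fibroblasts exposed to compound (at or below 30 μM, 4-21 days). Values given as IC50 by curve fitting; cell viability checked with alamar blue or ATP.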

Structure (SMILES)	IC50 [nM]
Cn1nc2ccc(Nc3cc(-c4ccc5cnn(C)c5c4)nc(N4CCOCC4)n3)cc2n1 [[6-(1-methyl(1H-indazol-6-yl))-2-morpholin-4-ylpyrimidin-4-yl](2-methyl(2-hydrobenzotriazol-5-yl))amine]	1000 to 5000
Cn1nc(CCN2CCOCC2)c2ccc(-c3cc(Nc4ccc(-n5cccn5)cc4)nc(N4CCOCC4)n3)cc21 [{6-[1-methyl-3-(2-morpholin-4-ylethyl)(1H-indazol-6-yl)]-2-morpholin-4-ylpyrimidin-4-yl}(4-pyrazolylphenyl)amine]	< 500

Same assay, conditions: Homo sapiens, Fibroblast, Assay 1 for MPS II, heparan sulfate disaccharide biomarkers (I2a4, I2a6, I2S0 and/or I2S6), read-out: IC50 Range

Structure (SMILES)	IC50 [nM]
Cn1ncc2ncc(-c3cc(Nc4ccc(-c5nnc[nH]5)cc4)nc(N4CCOCC4)n3)cc21 [(4-(4H-1,2,4-triazol-3-yl)phenyl)[6-(1-methylpyrazolo[4,5-b]pyridin-6-yl)-2-morpholin-4-ylpyrimidin-4-yl]amine]	< 500
Clc1ccc(Nc2cc(-c3ccc4c(c3)ncn4CCCN3CCOCC3)nc(N3CCOCC3)n2)cc1 [(4-chlorophenyl){2-morpholin-4-yl-6-[1-(3-morpholin-4-ylpropyl)benzimidazol-5-yl]pyrimidin-4-yl}amine]	1000 to 5000
Cn1ncc2ccc(-c3cc(Nc4ccc(-n5nccn5)cc4)nc(N4CCOCC4)n3)cc21 [[6-(1-methyl(1H-indazol-6-yl))-2-morpholin-4-ylpyrimidin-4-yl](4-(1,2,3-triazol-2-yl)phenyl)amine]	< 500
COC(=O)c1ccc(Nc2cc(-c3ccc4cnn(C)c4c3)nc(N3CCOCC3)n2)cc1 [methyl 4-{[6-(1-methyl(1H-indazol-6-yl))-2-morpholin-4-ylpyrimidin-4-yl]amino}benzoate]	1000 to 5000
CNC(=O)c1ccc(Nc2cc(-c3ccc4cn(CC5CC5)nc4c3)nc(N3CCOCC3)n2)cn1 [[5-({6-[2-(cyclopropylmethyl)(2H-indazol-6-yl)]-2-morpholin-4-ylpyrimidin-4-yl}amino)(2-pyridyl)]-N-methylcarboxamide]	1000 to 5000
Cc1nn(C)c2cc(-c3cc(Nc4ccc(-c5ncc[nH]5)cc4)nc(N4CCOCC4)n3)ccc12 [[6-(1,3-dimethyl(1H-indazol-6-yl))-2-morpholin-4-ylpyrimidin-4-yl](4-imidazol-2-ylphenyl)amine]	< 500
Cn1ncc2ccc(-c3cc(Nc4ccc(-c5nnc[nH]5)cc4)nc(N4CCOCC4)n3)cc21 [(4-(4H-1,2,4-triazol-3-yl)phenyl)[6-(1-methyl(1H-indazol-6-yl))-2-morpholin-4-ylpyrimidin-4-yl]amine]	< 500
CNC(=O)c1ccc(Nc2cc(-c3ccc4nc(C)n(C5CC5)c4c3)nc(N3CCOCC3)n2)cc1 [(4-{[6-(1-cyclopropyl-2-methylbenzimidazol-6-yl)-2-morpholin-4-ylpyrimidin-4-yl]amino}phenyl)-N-methylcarboxamide]	< 500
CNC(=O)c1ccc(Nc2cc(-c3ccc4c(c3)ncn4CCN3CCOCC3)nc(N3CCOCC3)n2)cc1 [N-methyl[4-({2-morpholin-4-yl-6-[1-(2-morpholin-4-ylethyl)benzimidazol-5-yl]pyrimidin-4-yl}amino)phenyl]carboxamide]	500 to 1000
Cn1nc(CCN2CCOCC2)c2ccc(-c3cc(Nc4ccc(-c5ncco5)cc4)nc(N4CCOCC4)n3)cc21 [{6-[1-methyl-3-(2-morpholin-4-ylethyl)(1H-indazol-6-yl)]-2-morpholin-4-ylpyrimidin-4-yl}(4-(1,3-oxazol-2-yl)phenyl)amine]	500 to 1000
Cn1ncc2ccc(-c3cc(Nc4ccc(Cl)cc4)nc(N4CCOCC4)n3)cc21 [(4-chlorophenyl)[6-(1-methyl(1H-indazol-6-yl))-2-morpholin-4-ylpyrimidin-4-yl]amine]	500 to 1000
Cn1cc2ccc(Nc3cc(-c4ccc5cnn(C)c5c4)nc(N4CCOCC4)n3)cc2n1 [[6-(1-methyl(1H-indazol-6-yl))-2-morpholin-4-ylpyrimidin-4-yl](2-methyl(2H-indazol-6-yl))amine]	1000 to 5000
Cc1cnn(-c2ccc(Nc3cc(-c4ccc5c(C)nn(C)c5c4)nc(N4CCOCC4)n3)cc2)n1 [[6-(1,3-dimethyl(1H-indazol-6-yl))-2-morpholin-4-ylpyrimidin-4-yl][4-(4-methyl(1,2,3-triazol-2-yl))phenyl]amine]	< 500
